Key:
Kibdelosporangium aridum = assay: Susceptibility of K. aridum to antibiotics, disk diffusion; format: cell-based
Description: Susceptibility of K. aridum to antibiotics was examined by placing BBL susceptibility disks on nutrient agar plates seeded with K. aridum as an overlay. Diameters of the zones of inhibition were measured after incubation for one week at 28° C.
Susceptibility to Antibiotics. […] Chlortetracycline ([…]) produced 18 mm zones of inhibition; tetracycline (5 μg) 11-12 mm zones; rifampin (5 μg) 11-15 mm zones; novobiocin (5 μg) 27-28 mm zones. All zones of inhibition contained at least a few resistant colonies.

[1] = test system: rumen fluid from dairy cows; assay: Rumen in vitro experiment with dairy cow rumen fluid; details: about 23 hours
Description: A similar experiment was carried out using rumen fluid from dairy cows fed a typical dairy cow diet of two parts corn silage and three parts dairy concentrate. Specifically, strained rumen fluid (10 ml) was obtained, from an animal fed two hours earlier, via cannula and was mixed with 10 ml of a nutrient broth comprising a 2:3 mix of corn silage and dairy concentrate. After adding a selected growth promotant, the mixture was incubated at 39° C. for about 23 hours, with oscillation.

rumen inoculum = assay: Rumen in vitro model; parameters: species or system steer

## CCC[C@@H]1C[C@@H](C(=O)N[C@@H]([C@H]2O[C@H](SC)[C@H](O)[C@@H](O)[C@H]2O)[C@H](C)Cl)N(C)C1 [clindamycin]
Kibdelosporangium aridum; disk 2 μg, 28° C., one week
  Susceptibility of K. aridum: resistant

## CN(C)[C@@H]1C(O)=C(C(N)=O)C(=O)[C@@]2(O)C(O)=C3C(=O)c4c(O)ccc(Cl)c4[C@@](C)(O)[C@H]3C[C@@H]12 [Chlortetracycline]
Kibdelosporangium aridum; disk 5 g (so in the source), zones contained a few resistant colonies
  Zone of inhibition: 18 mm

## CC[C@@]1([C@H]2O[C@H]([C@H]3O[C@@](O)(CO)[C@H](C)C[C@@H]3C)C[C@H]2C)CC[C@H]([C@@]2(C)CC[C@]3(C[C@H](O)[C@@H](C)[C@@H]([C@H](C)[C@H](OC)[C@@H](C)C(=O)O)O3)O2)O1 [Monensin Sodium]
[1]; 0.5 ppm
  % PR: 117% OF CONTROL
  ACE: 100% OF CONTROL
  AMO: 115% OF CONTROL
  BUT: 94% OF CONTROL
  DLAC: 0% OF CONTROL
  ETOH: 0% OF CONTROL
  GLU: 0% OF CONTROL
  IBU: 104% OF CONTROL
  IVA: 114% OF CONTROL
  LLAC: 0% OF CONTROL
  LYS: 96% OF CONTROL
  NH--N: 137% OF CONTROL
  PRO: 122% OF CONTROL
  TOTAL: 104% OF CONTROL
  VAL: 105% OF CONTROL
[1]; 5 ppm
  % PR: 146% OF CONTROL
  ACE: 102% OF CONTROL
  AMO: 238% OF CONTROL
  BUT: 71% OF CONTROL
  DLAC: 0% OF CONTROL
  ETOH: 0% OF CONTROL
  GLU: 0% OF CONTROL
  IBU: 91% OF CONTROL
  IVA: 75% OF CONTROL
  LLAC: 0% OF CONTROL
  LYS: 95% OF CONTROL
  NH--N: 105% OF CONTROL
  PRO: 145% OF CONTROL
  TOTAL: 99% OF CONTROL
  VAL: 81% OF CONTROL
[1]; 50 ppm
  % PR: 185% OF CONTROL
  ACE: 76% OF CONTROL
  AMO: 274% OF CONTROL
  BUT: 59% OF CONTROL
  DLAC: 0% OF CONTROL
  ETOH: 0% OF CONTROL
  GLU: 0% OF CONTROL
  IBU: 55% OF CONTROL
  IVA: 45% OF CONTROL
  LLAC: 0% OF CONTROL
  LYS: 120% OF CONTROL
  NH--N: 84% OF CONTROL
  PRO: 159% OF CONTROL
  TOTAL: 86% OF CONTROL
  VAL: 58% OF CONTROL
Rumen inoculum; 0.5 ppm
  % PR: 119% OF CONTROL
  ACE: 78% OF CONTROL
  AMO: 0% OF CONTROL
  BUT: 100% OF CONTROL
  DLAC: 0% OF CONTROL
  ETOH: 0% OF CONTROL
  IBU: 138% OF CONTROL
  IVA: 219% OF CONTROL
  LLAC: 0% OF CONTROL
  PRO: 112% OF CONTROL
  TOTAL: 94% OF CONTROL
  UREA: 0% OF CONTROL
  VAL: 101% OF CONTROL
  VFA: 94 % Control
Rumen inoculum; 5 ppm
  % PR: 149% OF CONTROL
  ACE: 74% OF CONTROL
  AMO: 0% OF CONTROL
  BUT: 93% OF CONTROL
  DLAC: 0% OF CONTROL
  ETOH: 0% OF CONTROL
  IVA: 265% OF CONTROL
  LLAC: 178% OF CONTROL
  PRO: 154% OF CONTROL
  TOTAL: 104% OF CONTROL
  UREA: 0% OF CONTROL
  VAL: 99% OF CONTROL
  VFA: 104 % Control
Rumen inoculum; 50 ppm
  % PR: 156% OF CONTROL
  ACE: 73% OF CONTROL
  AMO: 0% OF CONTROL
  BUT: 98% OF CONTROL
  DLAC: 0% OF CONTROL
  ETOH: 0% OF CONTROL
  IBU: 196% OF CONTROL
  IVA: 278% OF CONTROL
  LLAC: 999% OF CONTROL
  PRO: 171% OF CONTROL
  UREA: 0% OF CONTROL
  VAL: 107% OF CONTROL

## Avoparcin
[1]; 0.5 ppm
  % PR: 101% OF CONTROL
  ACE: 100% OF CONTROL
  AMO: 79% OF CONTROL
  BUT: 100% OF CONTROL
  DLAC: 0% OF CONTROL
  ETOH: 0% OF CONTROL
  GLU: 0% OF CONTROL
  IBU: 122% OF CONTROL
  IVA: 101% OF CONTROL
  LLAC: 0% OF CONTROL
  LYS: 91% OF CONTROL
  NH--N: 92% OF CONTROL
  PRO: 102% OF CONTROL
  TOTAL: 1200% OF CONTROL
  VAL: 97% OF CONTROL
[1]; 5 ppm
  % PR: 113% OF CONTROL
  ACE: 94% OF CONTROL
  AMO: 107% OF CONTROL
  BUT: 91% OF CONTROL
  DLAC: 0% OF CONTROL
  ETOH: 0% OF CONTROL
  GLU: 0% OF CONTROL
  IBU: 146% OF CONTROL
  IVA: 115% OF CONTROL
  LLAC: 0% OF CONTROL
  LYS: 92% OF CONTROL
  NH--N: 122% OF CONTROL
  PRO: 112% OF CONTROL
  TOTAL: 99% OF CONTROL
  VAL: 103% OF CONTROL
[1]; 50 ppm
  % PR: 128% OF CONTROL
  ACE: 108% OF CONTROL
  AMO: 123% OF CONTROL
  BUT: 88% OF CONTROL
  DLAC: 0% OF CONTROL
  ETOH: 0% OF CONTROL
  GLU: 0% OF CONTROL
  IBU: 116% OF CONTROL
  IVA: 104% OF CONTROL
  LLAC: 0% OF CONTROL
  LYS: 88% OF CONTROL
  NH--N: 148% OF CONTROL
  PRO: 137% OF CONTROL
  TOTAL: 107% OF CONTROL
  VAL: 99% OF CONTROL

Source: patent publication US4797280A, “Antibiotics produced by Kibdelosporangium aridum Shearer gen. nov., sp. nov. ATCC 39323” (SmithKline Beckman Corporation, priority 1986, dated 1989)
